This experiment deals with erythrocytes in a whole blood sample. Briefly: hemagglutination evaluation test: whole blood sample added to hemagglutination reagent, rate of agglutination of erythrocytes visually evaluated. Type of experiment: cell-based. Further details: key to Rate of agglutination: +++: Erythrocytes were instantaneously agglutinated into a sufficient size and the agglutinated erythrocytes were precipitated.; ++: Erythrocytes started to agglutinate after leaving to stand for a few seconds, and agglutinated erythrocytes were gradually precipitated.; +: Erythrocytes were agglutinated, but the agglutinates were very small and the agglutination was incomplete.; ±: Only very few erythrocytes were agglutinated.; −: Erythrocytes were hemolyzed without being agglutinated. Particulars: citric acid 100 mM in physiologic saline, pH3.0. How it is done: To 71 mL of distilled water, 10 mL of 10 w/v % sodium taurodeoxycholate hydrate (TDOC), 10 mL of 1 M citric acid, and 9 mL of 10 w/v % sodium chloride were added to prepare a solution containing 100 mM citric acid, 1% TDOC, and 0.9% sodium chloride as final concentrations (hemagglutination reagent). A solution was also prepared in the similar manner except that TDOC and/or sodium chloride were not added (hemagglutination reagent), and effects of the presence and absence of the cholic acid-based surfactant and the salt and the pH range on agglutination of erythrocytes were compared.
After adding 60 μL of a whole blood sample to 400 μL of the hemagglutination reagent, the rate of agglutination of erythrocytes was visually evaluated. The rate of agglutination was evaluated as +++, ++, +, or ± in order of rapidity based on the criteria described below. Hemolysis without agglutination was evaluated as −.
The pH of the hemagglutination reagent was measured using a desktop pH meter (HORIBA) (similarly in the following Examples and Comparative Examples).
Various cholic acid-based surfactants (1% by weight) and citric acid (100 mM) were added to a physiologic saline to prepare hemagglutination reagents (pH3.0) and their abilities to agglutinate erythrocytes were compared.
After adding 60 μL of a whole blood sample to 400 μL of the hemagglutination reagent, the rate of agglutination of erythrocytes was evaluated. The rate of agglutination was evaluated as +++, ++, +, or ± in order of rapidity based on the criteria described below. Hemolysis without agglutination was evaluated as −. The following criteria were the same as those in Examples 1 to 4 and Comparative Examples 1-1 to 4-2.
Sodium taurodeoxycholate hydrate (TDOC) and citric acid (100 mM) were added to a physiologic saline to prepare hemagglutination reagents (pH3.0), and their abilities to agglutinate erythrocytes were compared in the concentration range of TDOC as shown in the table below.
After adding 60 μL of a whole blood sample to 400 μL of the hemagglutination reagent, the rate of agglutination of erythrocytes was evaluated. The rate of agglutination was evaluated as +++, ++, +, or ± in order of rapidity based on the criteria below. Hemolysis without agglutination was evaluated as −. The following criteria were the same as those in Examples 1 to 7 and Comparative Examples 1-1 to 4-2.

Turning to `C[C@H](CCC(=O)NCCS(=O)(=O)[O-])[C@H]1CC[C@H]2[C@@H]3CC[C@@H]4C[C@H](O)CC[C@]4(C)[C@H]3C[C@H](O)[C@]12C.O.[Na+]` [TDOC, sodium taurodeoxycholate hydrate], the Rate of agglutination result is, setting by setting: (Concentration of TDOC 0.1 wt %) “+++”; (Concentration of TDOC 0.5 wt %) “+++”; (Concentration of TDOC 1.0 wt %) “+++”; (Concentration of TDOC 6.0 wt %) “+++”. For the same molecule, where the note is “surfactant 1% by weight”, the “effect on hemagglutination (compared among cholic acid-based surfactants)” value is “most significant”.
